Assay results reported in PMC12007624 (Open Forum Infectious Diseases, 2025).

Columns and labels:
[1] = Pharmacokinetics of RAL before and DTG after switch to DTG-based ART; type: in vivo, human; details: SOT recipients receiving immunosuppressants
[2] = tested on: renal organic cation transporter OCT2; details: renal tubules; interferes with creatinine clearance; cited from earlier work
[3] = tested on: multidrug and toxin extrusion transporter MATE1; details: renal tubules; cited from earlier work
[4] = Pharmacokinetics of immunosuppressants before and 2 weeks after ART switch; type: in vivo, human; details: for AUC % Change / Cmax % Change / Cmin % Change: after vs before ART switch, P > .05

C[C@@H]1CCO[C@H]2Cn3cc(C(=O)NCc4ccc(F)cc4F)c(=O)c(O)c3C(=O)N12 [DTG, Dolutegravir]
plasma levels versus normal range [1]: in the normal range
effect on OCT2 [2]: inhibits
effect on MATE1 [3]: potentially

COc1c(C)c2c(c(O)c1C/C=C(\C)CCC(=O)O)C(=O)OC2 [Mycophenolic Acid, mycophenolic acid]
Cmin ([4]; After ART switch (2 weeks on DTG-based ART), plasma, median (IQR)): 2.9 (1.7, 4) µg/mL
Cmin ([4]; Before ART switch (RAL-based ART), plasma, median (IQR)): 1.9 (1.5, 2.5) µg/mL
AUC % Change [4]: 16%
Cmax % Change [4]: 63%
Cmin % Change [4]: 53%
AUC % Change ([4]; listed as mycophenolic acid): +16%
Cmax % Change ([4]; listed as mycophenolic acid): +63%
Cmin % Change ([4]; listed as mycophenolic acid): +53%

Cc1nnc(C(=O)NC(C)(C)c2nc(C(=O)NCc3ccc(F)cc3)c(O)c(=O)n2C)o1 [RAL, Raltegravir]
plasma levels versus normal range [1]: in the normal range

C=CC[C@@H]1/C=C(\C)C[C@H](C)C[C@H](OC)[C@H]2O[C@@](O)(C(=O)C(=O)N3CCCC[C@H]3C(=O)O[C@H](/C(C)=C/[C@@H]3CC[C@@H](O)[C@H](OC)C3)[C@H](C)[C@@H](O)CC1=O)[C@H](C)C[C@@H]2OC [Tacrolimus, tacrolimus]
Cmin ([4]; After ART switch (2 weeks on DTG-based ART), blood, median (IQR)): 4.4 (4.3, 8.5) ng/mL
Tmax ([4]; After ART switch (2 weeks on DTG-based ART), median (IQR)): 2 (1, 2) h
Cmin ([4]; Before ART switch (RAL-based ART), blood, median (IQR)): 6.2 (5.2, 8.9) ng/mL
AUC % Change [4]: −9%
Cmax % Change [4]: 14%
Cmin % Change [4]: −29%
Cmax % Change ([4]; listed as tacrolimus): +14%
